The values that follow come from patent publication US12070457B2, “Substituted pyridines, pyridazines, pyrimidines, and 1,2,3-triazines as bruton's tyrosine kinase inhibitors” (HUTCHISON MEDIPHARMA LIMITED, priority 2020, dated 2024).

The target of assay [1] is phosphorylated BTK in Ramos cells (Homo sapiens (Human), UniProt Q06187). Put plainly: Determination of phosphorylated BTK in Ramos cells (BTK phospho-Y223 HTRF). It is filed as cell-based. The method, then: Determination of Phosphorylated BTK in Ramos Cells
(§1) 1. Reagents and Materials
• Ramos cells: Ramos cells were purchased from American Standard Biological Collection Center ATCC Cell Bank, PRMI 1640 medium containing L-glutamine, 1.5 g/L of sodium bicarbonate, 2.383 g/L of HEPES solution, 0.11 g/L of sodium pyruvate and 4.5 g/L of glucose was used, added 10% fetal bovine serum FBS, and placed in a 5% C02, 37° C. cell incubator for normal culture; • PRMI 1640 medium: GIBCO, Cat #A10491-01; • Fetal bovine serum (FBS): GIBCO, Cat #100100-147; • Hank's balanced salt solution (HBSS): GIBCO, Cat #14025-092; • Immunoglobulin M (IgM): Jackson Immuno, Cat #109-006-129; • 3% hydrogen peroxide (3% H2O2): Sigma, Cat #88597-100 ML-F; • Phosphorylated BTK HTRF detection kit (BTK phospho-Y223 HTRF kit): Cisbio, Cat #63ADK017PEH; • Microwell plate reader: Envision, Perkin Elmer; • 384-well plate CulturPlate™384: Perkin Elmer, Cat #6007680 • 96-well plate: Corning, Cat #3799. 2. Methods
Ramos cells were starved in PRMI 1640 medium with 1% FBS for 2 hours. The starved Ramos cells were diluted with Hank's balanced salt solution to 5.0×10^6 cells/ml, seeded in a 96-well plate with 20 μL/well (1.0×10^5 cells/well), and cultured in a 5% CO2, 37° C. cell incubator. […]
The 384 well plate incubated overnight in the constant temperature incubator was taken out to detect the luminescence signal using the Envision microwell plate reader at the […]. The reading value at 665 nm/615 nm of each well multiplied by 104 was used as the signal value of each well.
The average signal value of the wells supplemented with the mixed solution of human immunoglobulin M (final concentration was 10 μg/mL) and hydrogen peroxide (final concentration was 3.3 mM) without the test compound was regarded as the high value, and the average signal value of the wells without immunoglobulin M stimulation and without the test compound was regarded as the low value. According to the signal value in each well, the inhibition ratio (%) of each concentration of compounds was calculated, and the 205 model in XL-Fit 5.3 software (ID Business Solutions Limited) was used to obtain an IC50 value. […]
Background: TR-FRET usually uses a lanthanide donor and a delayed reading to cut background.

For assay [2], the target named is BTK recombinant protein (Homo sapiens (Human), UniProt Q06187). Put plainly: Determination of biochemical BTK (Z'-LYTE kinase assay).
From the text: Example 2 Determination of Biochemical BTK
as §1
• BTK recombinant protein: Invitrogen, Cat #PV3363; • Z′-LYTE® kinase test kit-tyrosine 1 peptide: Invitrogen, Cat #PV3190; • 384-well low-flange black flat-bottomed polystyrene NBS microplate, no lid, no sterilization: Corning, Cat #3575; • 96-well polystyrene conical-bottomed MicroWell™ plate, sealed with a lid: Thermo Scientific™ Nunc™, Cat #277143; • Envision multi-mode plate reader: PerkinElmer; • Mixmate® shaker: Eppendorf; • TS-2102 shaking incubator: TENSUC; 2. Methods
Z′-LYTE® biochemical assay employs a fluorescence resonance energy transfer (FRET)-based, coupled-enzyme format and is based on the differential sensitivity of phosphorylated and non-phosphorylated peptides to proteolytic cleavage. Both ends of the short peptide substrate are labeled with two fluorescent groups to form a FRET paired combination. In the primary reaction (the Kinase Reaction), the kinase transfers the γ-phosphate of ATP to a single […] residue on the short peptide substrate. In the secondary reaction (the development reaction), the non-phosphorylated short peptides were recognized and cleaved by a site-specific protease (the development reagent). Phosphorylated short peptides can resist such cleavage. Cleavage of short peptides can disrupt the donor (such as coumarin) and receptor fluorophores (fluorescein) on the short peptides, while the phosphorylated short peptides can maintain FRET. The calculation method of the ratio is as follows, and the ratio of the respective emission signals generated by the donor fluorophores emitted (after excitation at 400 nm) to the receptors is calculated. Emission signal ratio=emitted light by coumarin (445 nm)/emitted light by fluorescein (520 nm). If the FRET short peptide is phosphorylated (such as no kinase inhibitor), the emitted light ratio will remain in a lower level. If the FRET short peptide is non-phosphorylated (such as kinase inhibitor), the emitted light ratio will be in a higher level. In this way, the inhibitory effects of different compound inhibitors on BTK kinase activity would be distinguished.
The experiment were carried out according to the instructions of the Z′-LYTE® kinase test kit-tyrosine 1 peptide. Reagent preparation: 1.33× kinase buffer: 5× kinase buffer was diluted with water to 1.33× kinase buffer; an enzyme solution: the kinase was dissolved in 1.33× kinase buffer with the final working concentration being 3.32 nM; a short peptide solution: a short peptide stock solution (1 mM dissolved in DMSO) was dissolved in 1.33× kinase buffer with the final working concentration being 2 μM; Z′-LYTE Tyr01 phosphorylated short peptide solution, 0.6 μl of stock solution (1 mM dissolved in DMSO) was dissolved in 149.4 μl of 1.33× kinase buffer; an ATP solution: an ATP stock solution (10 mM aqueous solution) was dissolved in 1.33× kinase buffer with the final working concentration being 32 μM; a color-developing solution: color-developing solution B was dissolved in color-developing buffer with the final working concentration being 1× color-developing solution; 4× compound preparation: the compound was diluted in 3-fold gradient concentration to finally obtain 4% DMSO aqueous solution containing different concentrations of the compound, with the final working concentration being 3000, 1000, 333.33, 111.11, 37.04, 12.35, 4.12, 1.37 nM, 8 concentration points in total.
Specific steps of the experiment: In the experiment, there were three control groups, each with 8 replicate wells, which were C1 100% inhibition group (no ATP), C2 0% inhibition group (with ATP), and C3 100% phosphorylation group, respectively. 2.5 μl of serially diluted compound was added to each well of a 384-well plate, with double replicate wells, and 4% DMSO solution was added to wells C1, C2, and C3. […]

The subject of assay [3] is B cell activation in mice whole blood (BTK target). Put plainly: In vivo inhibitory effect on BTK target (anti-IgD antibody-induced B cell activation in mice whole blood). On the set-up: species or system mouse. The method, then: Objects: B cells in mice whole blood were induced and activated by the anti-IgD antibody, and the inhibitory effect of the compound of the present invention on B cell activation in vivo was studied, so as to determine the inhibitory effect of the compound of the present invention on the BTK target in vivo.
Methods: C57BL/6 mice (female, 18-20 g, purchased from Shanghai Lingchang Biotechnology Co., Ltd.) were grouped according to Table 2.
The animals of each group were administered, then were placed in CO2 for anesthesia at designated time points, blood samples were taken from rats via retro-orbital bleeding, and heparin was used for anticoagulation; 90 μL of whole blood was taken from mice of each group, and added to a 96 well culture plate, and anti-mouse IgD antibody (BIO-RAD, Cat #MCA4693) was added to each well to a final concentration of 0.01 μg/μL (respectively for the each drug-treated group and anti-IgD antibody-inducted vehicle group); in addition, 90 μL of whole blood of mice in the vehicle group was taken and added to the 96-well culture plate, and PBS (phosphate buffer, GIBCO, Cat #C20012500BT) was added to each well to a final concentration of 0.01 μg/μL (namely, the vehicle control group); Each group was mixed well and incubated in a 37° C./5% CO2 incubator for 4 hours. In addition, the blood of mice in the drug-treated group was centrifuged to separate plasma for blood concentration analysis.
B cell activation ratio=percentage of CD69^+CD19^+ double positive B cells/percentage of CD19^+ single positive B cells
All data are represented by mean±standard error. For the comparison between each drug-treated group and the anti-IgD antibody-induced vehicle group, p value was calculated by Graphpad Prism using one-way ANOVA analysis of variance and Dunnett's test, and for the comparison between each drug-treated group, p value was calculated by using unpaired t test.

Chain of phosphorylated BTK in Ramos cells (Q06187 whole entry): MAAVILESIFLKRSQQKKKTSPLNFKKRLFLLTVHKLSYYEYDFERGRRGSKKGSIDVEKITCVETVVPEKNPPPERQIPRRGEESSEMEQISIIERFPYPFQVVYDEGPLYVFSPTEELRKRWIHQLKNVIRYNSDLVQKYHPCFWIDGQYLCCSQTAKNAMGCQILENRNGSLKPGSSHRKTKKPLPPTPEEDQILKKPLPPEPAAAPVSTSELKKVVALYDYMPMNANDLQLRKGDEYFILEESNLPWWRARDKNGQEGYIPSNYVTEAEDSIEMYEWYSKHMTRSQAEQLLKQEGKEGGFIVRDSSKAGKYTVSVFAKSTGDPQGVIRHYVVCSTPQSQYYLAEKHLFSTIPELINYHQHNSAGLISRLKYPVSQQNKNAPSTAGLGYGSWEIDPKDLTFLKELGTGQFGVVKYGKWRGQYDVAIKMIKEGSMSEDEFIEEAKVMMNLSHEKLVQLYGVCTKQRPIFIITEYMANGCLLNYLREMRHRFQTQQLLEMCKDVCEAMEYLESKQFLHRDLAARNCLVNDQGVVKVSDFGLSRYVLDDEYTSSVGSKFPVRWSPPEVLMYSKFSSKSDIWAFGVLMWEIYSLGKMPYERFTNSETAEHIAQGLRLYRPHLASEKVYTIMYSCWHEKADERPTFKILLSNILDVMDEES
Chain of BTK recombinant protein (Q06187 whole entry): as above

As for `CC1c2cc(Nc3cc(-c4ccnc(-n5ccn6c7c(cc6c5=O)CCC7)c4CO)cn(C)c3=O)nn2CCN1C1COC1` (racemic) [Compound 144], the figures for the IC50 in assay [1] and in assay [2] were 38 nM and 18 nM, respectively.

Consider `Cn1cc(-c2ccnc(-n3ccn4c5c(c(F)c4c3=O)CCCC5)c2CO)cc(Nc2cc3n(n2)CCOC3)c1=O` [compound 176], for which, in assay [3] (5 mg/kg oral single, 16 h), the “B cell activation ratio (the proportion of activated B cells to total B cells)” value was found to be 13.9 and the “Inhibition ratio (%)” value turned out to be 48%. In addition, the “inhibition ratio on B cell activation” value in assay [3] (5 mg/kg, after 16 hours of administration, anti-IgD antibody-induced, mice whole blood) was found to be 48%.

For `COCCN1CCn2nc(Nc3cc(-c4ccnc(-n5ccn6c7c(cc6c5=O)CCC7)c4CO)cn(C)c3=O)cc2C1C` (racemic) [Compound 145], the IC50 (in general, the concentration needed to halve the response being measured) was 16 nM in assay [1] and 33 nM in assay [2].
